Assays:
LD 50 Mouse = conditions: in vivo, iv, dihydrochloride
coronary vessels = assay: vasodilator action on the coronary vessels: change in the oxygen tension in the coronary veinous blood (narcotized dogs, i.v.); assay type: in vivo; conditions: dog, 0.5 mg./kg. i.v., dihydrochloride
Protocol: (§1) With respect to the change in the oxygen tension in the coronary veinous blood, the pharmacological investigation of the vasodilator action on the coronary vessels was carried out in dogs according to the methods described by W.K.A. Schaper and his co-workers (see W.K.A. SCHAPER, R. XHONNEUX, and J.M. BOGAARD "Ueber die kontinuierliche Messung des Sauerstoffdruckes im venoesen Coronarblut" (Naunyn-Schmiedeberg's Arch. exp. Path. u. Pharmak. 245, 383-389 (1963)). The test preparations were applied intravenously to the narcotized and spontaneously breathing animals. On these test conditions the dilatation of the coronary arteries caused by the test substances along with the increase in the coronary blood flow led to an increase in the oxygen tension in the coronary veinous blood. This oxygen tension was measured according to polarographic methods by means of a platin electrode of the Gleichmann-Lubbers type (see U. GLEICHMANN and D.W. LUEBBERS "Die Messung des Sauerstoffdruckes in Gasen and Fluessigkeiten mit der Platin-Elektrode unter besonderer Berucksichtigung der Messung im Blut," Pflugers Arch. 271, 431-455 (1960)). The heart rate was continuously measured by electronic methods from systolic peaks of the arterial blood pressure. The arterial blood pressure was measured in the known manner in the femoral artery with the aid of an electromanometer of the Statham-strain-gauge type.
(§2) The following table gives the results of the pharmacological investigations which were carried through. The preparations were tested in the form of their respective dihydrochlorides: […]

[1] = heart rate, continuously measured from systolic peaks of the arterial blood pressure (narcotized dogs, i.v.); assay type: in vivo; conditions: dog, 0.5 mg./kg. i.v., dihydrochloride
Protocol: as §1, with “The arterial blood pressure was measured in the known manner in the femoral artery with the aid of an electromanometer of the Statham-strain-gauge type.” left out

[2] = arterial blood pressure in the femoral artery (narcotized dogs, i.v.); assay type: in vivo; conditions: dog, 0.5 mg./kg. i.v., dihydrochloride
Protocol: as §1, §2

Compound | LD50 (LD 50 Mouse) [mg/kg] | Maximal Increase in Oxygen Tension in the Coronary Veinous Blood (coronary vessels) | Maximal Increase in Oxygen Tension in the Coronary Veinous Blood (coronary vessels; duration) [min] | Maximal Change in the Heart Rate [1] [%] | Maximal Change in the Heart Rate ([1]; duration) [min] | Maximal Change in the Blood Pressure (diastolic) ([2]; diastolic) [%] | Maximal Change in the Blood Pressure ([2]; duration) [min] | Maximal Change in the Blood Pressure (systolic) ([2]; systolic) [%]
COc1cc(C(=O)OC(Cc2c(C)c3ccc(OC)c(OC)c3oc2=O)CN2CCN(CC(=O)Nc3c(C)cccc3C)CC2)cc(OC)c1OC (stereo not drawn) [3-[γ-{N-(2,6-dimethyl-anilidocarbonylmethyl)-piperazino}-β-(3,4,5-trimethoxybenzoxy)-propyl]-4-methyl-7,8-dimethoxy-courmarin] | > 400 | +36% | > 20 | – | – | – | – | –
COc1ccc(CN2CCN(CC(Cc3c(C)c4ccc(OC)c(OC)c4oc3=O)OC(=O)c3cc(OC)c(OC)c(OC)c3)CC2)cc1OC (stereo not drawn) [3-[γ-(N-3,4-dimethoxy-benzyl-piperazino)-β-(3,4,5-trimethoxybenzoxy)-propyl]-4-methyl-7,8-dimethoxy-coumarin] | – | +60% | > 25 | -20 | > 25 | -66 | > 25 | -57

Source: patent US3959281A, “Piperazino substituted coumarin derivatives” (Cassella Farbwerke Mainkur Aktiengesellschaft, priority 1968, dated 1976)
